The conditions of data set [1]: DTA; for Normal melting temperature: Crystal; for Triple point temperature: Crystal 2.
Data set [2] in a line: Molar enthalpy of transition or fusion. To be noted: DSC.

± gives the expanded uncertainty stated by the source.

The results in this text go back to the NIST ThermoML archive (doi:10.1016/j.tca.2010.11.011).

As for `COC(=O)c1ccc(C(=O)OC)cc1` [dimethyl 1,4-benzenedicarboxylate], the Normal melting temperature in data set [1] worked out at 142.00 ± 1 °C. The “Molar enthalpy of transition or fusion” value in data set [2] (Crystal) turned out to be 7.89 ± 0.232 kcal/mol.

Turning to `O=C(O)/C=C\C(=O)O` [cis-1,4-butenedioic acid], the Normal melting temperature in data set [1] stood at 135.00 ± 8 °C. Further, the “Molar enthalpy of transition or fusion” value in data set [2] (Crystal) came to 6.52 ± 0.194 kcal/mol.

With `O=C(O)CCCCC(=O)O` [1,6-hexanedioic acid], the Normal melting temperature in data set [1] turned out to be 153.00 ± 4 °C. Also, the “Molar enthalpy of transition or fusion” value in data set [2] (Crystal) stood at 9.08 ± 0.239 kcal/mol.

On to `O=C(O)CCCCCCCCC(=O)O` [1,10-decanedioic acid], for which the Normal melting temperature in data set [1] came out at 132.00 ± 4 °C. Besides, in data set [2] (Crystal), the “Molar enthalpy of transition or fusion” value was 11 ± 0.287 kcal/mol.

As to `NC(CO)(CO)CO` [2-amino-2-(hydroxymethyl)-1,3-propanediol], the Triple point temperature in data set [1] is 405.15 ± 1 K. Further, in data set [2] (Crystal 2), the “Molar enthalpy of transition or fusion” value was determined as 8.25 ± 0.232 kcal/mol.

Take `CC(CO)(CO)C(=O)O` [2,2-bis(hydroxymethyl)propanoic acid]: the Triple point temperature in data set [1] stood at 458.15 ± 1 K. Further, in data set [2] (Crystal 2), the “Molar enthalpy of transition or fusion” value was determined as 9.26 ± 0.263 kcal/mol.

In the case of `O=C1OC(=O)c2ccccc21` [isobenzofuran-1,3-dione], the Normal melting temperature in data set [1] stood at 131.00 ± 1 °C. Also, the “Molar enthalpy of transition or fusion” value in data set [2] (Crystal) turned out to be 5.63 ± 0.177 kcal/mol.
